According to ChEMBL document CHEMBL4765365, “Design, synthesis and antitumour evaluation of pyrrolo[1,2-f]-phenanthridine and dibenzo[f,h]pyrrolo[1,2-b]isoquinoline derivatives” (Eur J Med Chem, 2020):
Activity calls are given as the source filed them. The calls are words filed in the database; no cut-off is given here.

Assays:
[1] = system: HCT-116; test: Induction of cell cycle arrest in human HCT-116 cells assessed as G2/M phase at 0.375 uM incubated for 36 hrs by PI staining based flow cytometry analysis (reference value: 23.6 +/- 1 %); format: functional
[2] = system: HCT-116; test: Induction of cell cycle arrest in human HCT-116 cells assessed as G0 phase at 0.375 uM incubated for 24 hrs by PI staining based flow cytometry analysis (reference value: 12.5 +/- 5.4 %); format: functional
[3] = system: CEM-VLB; test: Cytotoxicity against human CEM-VLB cells assessed as reduction in cell viability incubated for 72 hrs by XTT assay; format: functional, cell-based
[4] = system: HCT-116; test: Induction of cell cycle arrest in human HCT-116 cells assessed as G1 phase at 0.75 uM incubated for 12 hrs by PI staining based flow cytometry analysis (reference value: 53.6 +/- 4.5 %); format: functional
[5] = system: NCI-H460; test: Induction of cell cycle arrest in human NCI-H460 cells assessed as G1 phase at 1.5 uM measured at 0 hrs by PI staining based flow cytometry analysis (reference value: 53.4 +/- 4.8 %); format: functional
[6] = system: NCI-H460; test: Induction of cell cycle arrest in human NCI-H460 cells assessed as G0 phase at 3 uM incubated for 36 hrs by PI staining based flow cytometry analysis (reference value: 2.8 +/- 0.7 %); format: functional
[7] = system: NCI-H460; test: Induction of cell cycle arrest in human NCI-H460 cells assessed as S phase at 3 uM measured at 0 hrs by PI staining based flow cytometry analysis (reference value: 12.2 +/- 2.8 %); format: functional
[8] = system: HCT-116; test: Induction of cell cycle arrest in human HCT-116 cells assessed as G2/M phase at 1.5 uM incubated for 24 hrs by PI staining based flow cytometry analysis (reference value: 9.3 +/- 0.8 %); format: functional
[9] = system: HCT-116; test: Induction of cell cycle arrest in human HCT-116 cells assessed as G0 phase at 1.5 uM incubated for 12 hrs by PI staining based flow cytometry analysis (reference value: 2.2 +/- 1.7 %); format: functional
[10] = system: HCT-116; test: Induction of cell cycle arrest in human HCT-116 cells assessed as G0 phase at 1.5 uM measured at 0 hrs by PI staining based flow cytometry analysis (reference value: 0.7 +/- 0.2 %); format: functional
[11] = system: NCI-H460; test: Induction of apoptosis in human NCI-H460 cells assessed as early apoptotic cells at 6 uM incubated for 48 hrs by annexin V-FITC and PI staining based flow cytometry analysis (reference value: 2 %); format: functional
[12] = system: NCI-H460; test: Induction of cell cycle arrest in human NCI-H460 cells assessed as G0 phase at 0.75 uM incubated for 36 hrs by PI staining based flow cytometry analysis (reference value: 2.8 +/- 0.7 %); format: functional
[13] = system: NCI-H460; test: Induction of cell cycle arrest in human NCI-H460 cells assessed as S phase at 1.5 uM measured at 0 hrs by PI staining based flow cytometry analysis (reference value: 12.2 +/- 2.8 %); format: functional
[14] = system: NCI-H460; test: Induction of cell cycle arrest in human NCI-H460 cells assessed as G0 phase at 0.75 uM incubated for 24 hrs by PI staining based flow cytometry analysis (reference value: 1.6 +/- 0.6 %); format: functional
[15] = system: HCT-116; test: Induction of cell cycle arrest in human HCT-116 cells assessed as G0 phase at 0.375 uM measured at 0 hrs by PI staining based flow cytometry analysis (reference value: 0.7 +/- 0.2 %); format: functional
[16] = system: NCI-H460; test: Induction of cell cycle arrest in human NCI-H460 cells assessed as S phase at 3 uM incubated for 12 hrs by PI staining based flow cytometry analysis (reference value: 11.2 +/- 4.3 %); format: functional
[17] = system: NCI-H460; test: Induction of apoptosis in human NCI-H460 cells assessed as viable cells at 3 uM incubated for 48 hrs by annexin V-FITC and PI staining based flow cytometry analysis (reference value: 90.1 %); format: functional; conditions: read-out: Activity
[18] = system: dsDNA; test: Induction of pBR322 DNA interstand crosslink at 1 to 20 uM incubated for 2 hrs by agarose gel electrophoresis assay; conditions: dose 1-20 µM
[19] = system: HCT-116; test: Induction of cell cycle arrest in human HCT-116 cells assessed as G0 phase at 0.75 uM incubated for 24 hrs by PI staining based flow cytometry analysis (reference value: 12.5 +/- 5.4 %); format: functional
[20] = system: HCT-116; test: Induction of cell cycle arrest in human HCT-116 cells assessed as G2/M phase at 1.5 uM measured at 0 hrs by PI staining based flow cytometry analysis (reference value: 28.9 +/- 1.4 %); format: functional
[21] = system: NCI-H460; test: Induction of cell cycle arrest in human NCI-H460 cells assessed as G0 phase at 1.5 uM measured at 0 hrs by PI staining based flow cytometry analysis (reference value: 1.3 +/- 0.9 %); format: functional
[22] = system: HCT-116; test: Induction of cell cycle arrest in human HCT-116 cells assessed as S phase at 0.75 uM incubated for 24 hrs by PI staining based flow cytometry analysis (reference value: 21.2 +/- 5.4 %); format: functional
[23] = system: NCI-H460; test: Induction of cell cycle arrest in human NCI-H460 cells assessed as G0 phase at 1.5 uM incubated for 12 hrs by PI staining based flow cytometry analysis (reference value: 2.9 +/- 2.4 %); format: functional
[24] = system: NCI-H460; test: Induction of cell cycle arrest in human NCI-H460 cells assessed as G2/M phase at 0.75 uM incubated for 36 hrs by PI staining based flow cytometry analysis (reference value: 25 +/- 1.2 %); format: functional
[25] = system: NCI-H460; test: Induction of cell cycle arrest in human NCI-H460 cells assessed as S phase at 0.75 uM incubated for 36 hrs by PI staining based flow cytometry analysis (reference value: 7.6 +/- 3.9 %); format: functional

Compound `OCc1cn2c3ccccc3c3ccccc3c2c1CO` has an Activity [1] of 23.4%, an Activity [2] of 13.8% and an IC50 [3] of 0.38 µM. For the same compound, the Activity [4] was 51.6%, the Activity [5] was 55.5% and the Activity [6] was 8.7%. For the same compound, the Activity [7] was 12.2%, the Activity [8] was 30.3% and the Activity [9] was 1.9%. The Activity [10] was 2.2%, the Activity [11] was 29.2% and the Activity [12] was 1.9%. It also gave an Activity [13] of 12%, an Activity [14] of 1.8% and an Activity [15] of 0.6%. For the same compound, the Activity [16] was 17.3%, the viability at 3 µM [17] was 36.2% and the Activity [18] was “Active”. For the same compound, the Activity [19] was 2.7%, the Activity [20] was 28.5% and the Activity [21] was 1.4%. For the same compound, the Activity [22] was 8.9%, the Activity [23] was 2.6% and the Activity [24] was 20.9%. The Activity [25] was 6.3%.
